# From ChEMBL document CHEMBL5113500, “New brefeldin A-cinnamic acid ester derivatives as potential antitumor agents: Design, synthesis and biological evaluation” (Eur J Med Chem, 2022)
# Activity calls are given as the source filed them. The calls are words filed in the database; no cut-off is given here.
# Columns and labels:
# Bel-7402 [1] = assay: Cell cycle arrest in human Bel-7402 cells assessed as accumulation at G1 phase at 1 uM measured after 24 hrs by propidium iodide staining based flow cytometry (reference value: 38.72%); format: functional
# HepG2 [2] = assay: Cell cycle arrest in human HepG2 cells assessed as accumulation at G2/M phase at 0.4 uM measured after 24 hrs by propidium iodide staining based flow cytometry (reference value: 19.93%); format: functional
# HepG2 [3] = assay: Cell cycle arrest in human HepG2 cells assessed as accumulation at S phase at 0.4 uM measured after 24 hrs by propidium iodide staining based flow cytometry (reference value: 32.81%); format: functional
# HepG2 [4] = assay: Induction of apoptosis in human HepG2 cells assessed as late apoptotic cells at 0.2 uM measured after 48 hrs by Annexin V-FITC/propidium iodide staining based flow cytometry (reference value: 1.66%); format: functional
# HepG2 [5] = assay: Induction of apoptosis in human HepG2 cells measured after 48 hrs by Annexin V-FITC/propidium iodide staining based flow cytometry; format: functional, cell-based; settings: dose 0.2-0.8 µM, DDE = dose-dependent effect
# HepG2 [6] = assay: Antiproliferative activity against human HepG2 cells assessed as cell growth inhibition at 1 uM measured after 72 hrs by MTT assay relative to control; format: functional; settings: read-out: GI
# HeLa = assay: Antiproliferative activity against human HeLa cells measured after 72 hrs by MTT assay; format: functional, cell-based
# PANC-1 = assay: Antiproliferative activity against human PANC-1 cells measured after 72 hrs by MTT assay; format: functional, cell-based; settings: PANC-1, 72 h
# [7] = Cytotoxicity against human L02 cells measured after 72 hrs by MTT assay; format: toxicity, cell-based
# Bel-7402 [8] = assay: Inhibition of colony formation in human Bel-7402 cells at 2 uM treated every 3 days for 14 days by crystal violet staining based assay; format: functional, cell-based; settings: time 14.0 day
# HepG2 [9] = assay: Inhibition of colony formation in human HepG2 cells assessed as reduction in colony size at 0.2 to 0.8 uM treated every 3 days for 14 days by crystal violet staining based microscopy; format: functional, cell-based; settings: dose 0.2-0.8 µM, time 14.0 day
# Bel-7402 [10] = assay: Inhibition of colony formation in human Bel-7402 cells assessed as reduction in colony size at 0.5 to 2 uM treated every 3 days for 14 days by crystal violet staining based microscopy; format: functional, cell-based; settings: dose 0.5-2 µM, time 14.0 day
# HepG2 [11] = assay: Cell cycle arrest in human HepG2 cells assessed as accumulation at G1 phase at 0.2 uM measured after 24 hrs by propidium iodide staining based flow cytometry (reference value: 42.27%); format: functional
# HepG2 [12] = assay: Cell cycle arrest in human HepG2 cells assessed as accumulation at S phase at 0.2 uM measured after 24 hrs by propidium iodide staining based flow cytometry (reference value: 32.81%); format: functional
# Bel-7402 [13] = assay: Cell cycle arrest in human Bel-7402 cells assessed as accumulation at G1 phase at 0.5 uM measured after 24 hrs by propidium iodide staining based flow cytometry (reference value: 38.72%); format: functional
# Bel-7402 [14] = assay: Cell cycle arrest in human Bel-7402 cells assessed as accumulation at S phase at 0.5 uM measured after 24 hrs by propidium iodide staining based flow cytometry (reference value: 31%); format: functional
# Bel-7402 [15] = assay: Cell cycle arrest in human Bel-7402 cells assessed as accumulation at G2/M phase at 0.5 uM measured after 24 hrs by propidium iodide staining based flow cytometry (reference value: 30.29%); format: functional
# HepG2 [16] = assay: Cell cycle arrest in human HepG2 cells assessed as accumulation at G1 phase at 0.8 uM measured after 24 hrs by propidium iodide staining based flow cytometry (reference value: 42.27%); format: functional
# HepG2 [17] = assay: Cell cycle arrest in human HepG2 cells assessed as accumulation at S phase at 0.8 uM measured after 24 hrs by propidium iodide staining based flow cytometry (reference value: 32.81%); format: functional
# HepG2 [18] = assay: Cell cycle arrest in human HepG2 cells assessed as accumulation at G2/M phase at 0.8 uM measured after 24 hrs by propidium iodide staining based flow cytometry (reference value: 19.93%); format: functional
# Bel-7402 [19] = assay: Cell cycle arrest in human Bel-7402 cells assessed as accumulation at G1 phase at 2 uM measured after 24 hrs by propidium iodide staining based flow cytometry (reference value: 38.72%); format: functional
# HepG2 [20] = assay: Induction of apoptosis in human HepG2 cells assessed as early apoptotic cells at 0.4 uM measured after 48 hrs by Annexin V-FITC/propidium iodide staining based flow cytometry (reference value: 1.81%); format: functional
# HepG2 [21] = assay: Induction of apoptosis in human HepG2 cells assessed as necrotic cells at 0.4 uM measured after 48 hrs by Annexin V-FITC/propidium iodide staining based flow cytometry (reference value: 2.04%); format: functional
# HepG2 [22] = assay: Induction of apoptosis in human HepG2 cells assessed as viable cells at 0.8 uM measured after 48 hrs by Annexin V-FITC/propidium iodide staining based flow cytometry (reference value: 94.5%); format: functional; settings: read-out: Activity
# HepG2 [23] = assay: Induction of apoptosis in human HepG2 cells assessed as necrotic cells at 0.8 uM measured after 48 hrs by Annexin V-FITC/propidium iodide staining based flow cytometry (reference value: 2.04%); format: functional
# HepG2 [24] = assay: Induction of apoptosis in human HepG2 cells assessed as increase in cleaved caspase-3 expression at 0.2 to 0.8 uM measured after 48 hrs by Western blot analysis; format: functional, cell-based; settings: dose 0.2-0.8 µM
# [25] = Acute toxicity in ICR mouse assessed as body weight loss at 100 mg/kg, ip measured for 6 days; format: organism-based; settings: in vivo, 144 h, time 6 day
# [26] = Acute toxicity in ICR mouse assessed as body weight loss at 809 mg/kg, po measured for 6 days; format: organism-based; settings: in vivo, 144 h, time 6 day
# [27] = Acute toxicity in ICR mouse assessed as change in blood urea nitrogen level at 100 mg/kg, ip measured after 6 days; format: organism-based; settings: in vivo, 144 h, time 6 day
# [28] = Acute toxicity in ICR mouse assessed as change in creatine kinase level at 100 mg/kg, ip measured after 6 days; format: organism-based; settings: in vivo, 144 h, time 6 day
# [29] = Acute toxicity in ICR mouse assessed as pathological change in liver at 100 mg/kg, ip measured after 6 days; format: organism-based; settings: in vivo, 144 h, time 6 day
# [30] = Acute toxicity in ICR mouse assessed as pathological change in spleen at 100 mg/kg, ip measured after 6 days; format: organism-based; settings: in vivo, 144 h, time 6 day
# [31] = Terminal half life in ICR mouse at 10 mg/kg, iv; format: ADME, organism-based; settings: in vivo, read-out: beta t1/2 (converted)
# HepG2 [32] = assay: Antitumor activity against human HepG2 cells xenografted in BALB/c nude mouse assessed as tumor growth inhibition at 5 mg/kg, ip administered once daily for 16 days relative to control; format: functional; settings: HepG2, 384 h, time 16 day, read-out: TGI
# [33] = Toxicity in human HepG2 cells xenografted BALB/c nude mouse assessed as adverse effect at 5 to 10 mg/kg, ip administered once daily for 16 days; format: organism-based; settings: in vivo, 384 h, dose 5-10 mg/kg, time 16 day
# HepG2 [34] = assay: Antitumor activity against human HepG2 cells xenografted in BALB/c nude mouse assessed as reduction in tumor weight at 5 to 10 mg/kg, ip administered once daily for 16 days measured post-last dose; format: functional, organism-based; settings: dose 5-10 mg/kg, time 16.0 day
structure (smiles),measurement,setting,value
C[C@H]1CCC/C=C/[C@@H]2C[C@H](O)C[C@H]2[C@H](OC(=O)/C=C/c2ccc(N(C)C)cc2)/C=C/C(=O)O1,Activity,Bel-7402 [1],54.21%
same,Activity,HepG2 [2],20.88%
same,Activity,HepG2 [3],21.37%
same,Activity,HepG2 [4],3.05%
same,Activity,HepG2 [5],Dde
same,inhibition of growth at 1 µM,HepG2 [6],92.1%
same,IC50,HeLa,860 nM
same,IC50,PANC-1,640 nM
same,IC50 at 72 h,[7],2810 nM
same,inhibition,Bel-7402 [8],Active
same,inhibition,HepG2 [9],Active
same,inhibition,Bel-7402 [10],Active
same,Activity,HepG2 [11],48.26%
same,Activity,HepG2 [12],29.24%
same,Activity,Bel-7402 [13],51.26%
same,Activity,Bel-7402 [14],21.14%
same,Activity,Bel-7402 [15],27.62%
same,Activity,HepG2 [16],60.9%
same,Activity,HepG2 [17],23.25%
same,Activity,HepG2 [18],15.85%
same,Activity,Bel-7402 [19],60.5%
same,Activity,HepG2 [20],1.45%
same,Activity,HepG2 [21],41.57%
same,viability at 0.8 µM,HepG2 [22],54.4%
same,Activity,HepG2 [23],39.85%
same,Activity,HepG2 [24],Active
same,Activity,[25],Toxic
same,Activity,[26],Toxic
same,Activity,[27],Non-Toxic
same,Activity,[28],Non-Toxic
same,Activity,[29],Non-Toxic
same,Activity,[30],Non-Toxic
same,half-life,[31],2.08 h
same,inhibition in vivo at 5 mg/kg,HepG2 [32],34.3%
same,Activity,[33],Non-Toxic
same,Activity,HepG2 [34],Active
